Values of other authors, collected in patent US9789078B2, “Method of topically treating actinic keratosis with ingenol mebutate cycle therapy” (LEO Laboratories Limited, priority 2012, dated 2017).
Like-named read-outs stand apart in the source and are kept apart here.

Conditions: first treatment cycle, cited from earlier work

In the case of `C/C=C(/C)C(=O)O[C@H]1C(C)=C[C@]23C(=O)[C@@H](C=C(CO)[C@@H](O)[C@]12O)[C@H]1[C@@H](C[C@H]3C)C1(C)C` [ingenol mebutate], the “time to resolution of local adverse events without sequelae” value (topical application to the face or scalp) is given as no more than 2 weeks and the “time to resolution of local adverse events without sequelae” value (topical application to the trunk or extremities) is given as no more than 4 weeks.
